Test results published in US20250242030A1, “COMPOSITIONS COMPRISING A NON-BIOABSORBABLE POLYMER AND METABOLIC INHIBITOR” (Board of Trustees of Michigan State University, priority 2022, published 2025).

What was measured:
Format in all cases: cell-based, mouse
[1] = system: MEFs; test: Total ATP levels in lysed MEFs (ATP/ADP kit); conditions: PE-exposed MEFs with inhibitor of mitochondrial respiration
Procedure: (§1) Bioluminescence was measured using an IVIS Spectrum in vivo imaging system (PerkinElmer) after addition of 150 μg/mL of D-luciferin (PerkinElmer). Living Image (Version 4.5.2, PerkinElmer) was used for acquiring bioluminescence on the IVIS Spectrum. Standard ATP/ADP kits (Sigma-Aldrich) containing D-luciferin, luciferase, and cell lysis buffer were used according to manufacturer's instructions. Luminescence at integration time of 1,000 ms was obtained using the SpectraMax M3 Spectrophotometer (Molecular Devices) and SoftMax Pro software (ver. 7.0.2).
(§2) BMDMs derived from C57BL/6J mice (Jackson Laboratories) of 3-4 months were used. Mouse embryonic fibroblasts (NIH 3T3 cells, hereafter “MEFs”) were stably transfected with a Sleeping Beauty transposon plasmid (pLuBIG) having a bidirectional promoter driving an improved firefly luciferase gene (fLuc) and a fusion gene encoding a Blasticidin-resistance marker (BsdR) linked to eGFP (BGL). For temporal (IVIS) experiments lasting 12 days, 5,000 BGL cells were initially seeded in each well of a 96-well tissue culture plate in 200 μL if complete medium. For ATP, crystal violate, and Seahorse assays, 20,000 wild-type MEFs were seeded. For ATP, crystal violate, and cytokine/chemokine assays, 50,000 BMDMs were seeded. 60,000 BMDMs were seeded for the Seahorse assays. For IVIS experiments with glycolytic inhibitors, 20,000 BGL cells were initially seeded. Complete medium comprised DMEM medium, 10% heat inactivated fetal bovine serum (FBS), and 100 U/mL penicillin/streptomycin (all from ThermoFisher Scientific).

[2] = system: BMDMs; test: Seahorse assay (ECAR, PER, OCR) in BMDMs; conditions: PE-exposed BMDMs in presence of inhibitor
From the text: as §2
To determine the metabolic pathways responsible for the observed bioenergetic changes, Seahorse assays were used to measure oxygen consumption rate (OCR), extracellular acidification rate (ECAR) and lactate-linked proton efflux rate (PER) in a customized medium (pH 7.4). Basal measurements of OCR, ECAR, and PER were obtained in real time using the Seahorse XFe-96 Extracellular Flux Analyzer (Agilent Technologies). Prior to running the assay, cell culture medium was washed with and replaced by the Seahorse XF DMEM medium (pH 7.4) supplemented with 25 mM D-glucose and 4 mM glutamine. The Seahorse plates were equilibrated in a non-CO2 incubator for an hour prior to the assay. The Seahorse ATP rate and cell energy phenotype assays were run according to manufacturer's instruction and all reagents for the Seahorse assays were sourced from Agilent Technologies. Wave software (Version 2.6.1) was used to export Seahorse data directly as means±standard deviation (SD).
Seahorse assays measures ECAR as an index of glycolytic flux, OCR as an index of oxidative phosphorylation and PER as an index of monocarboxylate transporter function in live cells, and are used to assess for metabolic reprogramming. […] (FIGS. 3a-c)
(§3) Preparation of ultra-high molecular weight polyethylene particles are described in Example 1 above. The bioenergetics measurements, Seahorse assay, crystal violet assay, and cytokine and chemokine assays were conducted as described in Example 1. Inhibitors rotenone, metformin, oligomycin, and antimycin A were obtained from MilliporeSigma. The reagents were reconstituted in complete medium (described above).

[3] = system: BMDMs; test: Bioenergetic (ATP) levels in BMDMs; conditions: PE-exposed BMDMs with inhibitor of mitochondrial respiration
Procedure: as §1, §2, §3

[4] = system: BMDMs; test: Crystal violet cell viability assay in BMDMs; conditions: BMDMs treated with metabolic inhibitors; data not shown
From the text: as §2
(§4) Cell viability was measured using the crystal violet staining assay at room temperature. 50 μL media containing cells is incubated with 150 μL of 99.9% methanol for 15 minutes. […] Absorbance (optical density) was acquired at 570 nm using the SpectraMax M3 Spectrophotometer (Molecular Devices) and SoftMax Pro software (ver. 7.0.2).

[5] = system: BMDMs; test: Cytokine and chemokine multiplex assay in BMDM supernatants
From the text: as §2
Cytokine and chemokine levels were measured using a MILLIPLEX MAP mouse magnetic bead multiplex kit (MilliporeSigma) to assess for IL-6, MCP-1, TNF-α, IL-1β, IL-4, IL-10, IFN-γ, and 1L-13 protein expression in supernatants. Data was acquired using Luminex 200 (Luminex Corporation) by the xPONENT software (Version 3.1, Luminex Corporation). […] Values exceeding the dynamic range of the assay, in accordance with manufacturer's instruction, were excluded. Additionally, IL-6 ELISA kits (RayBiotech) for supernatants were used according to manufacturer's instructions.

[6] = system: MEFs; test: Crystal violet cell viability assay in MEFs; conditions: MEFs treated with metabolic inhibitors; data not shown
From the text: as §2, §4

[7] = system: macrophages; test: mitoSOX Red staining for mitochondrial ROS; conditions: added to PE-exposed macrophages, compared to macrophages exposed to only PE
From the text: To test whether increased OCR at complex I (FIG. 8c) fueled ROS production in the mitochondrion, macrophages were stained with mitoSOX Red. Exposure to LPS or PE particles increased mitochondrial reactive oxygen species (ROS) relative to untreated macrophages. Addition of metformin decreased mitochondrial ROS compared to macrophages exposed to only PE. Mitochondrial membrane potential is critical for reverse electron transport (RET) at complex I, and subsequent generation of mitochondrial ROS.

[8] = system: macrophages; test: TMRM staining for mitochondrial membrane potential; conditions: metformin added to exposed cells
[9] = 1 mM inhibitor, BMDMs exposed to ultra-high molecular weight PE particles
[10] = metformin, BMDMs treated with PE

SMILES | ATP levels in PE-exposed cells [1] | ECAR [2] | OCR [2] | PER [2] | ATP levels in PE-exposed cells [3] | cell viability [4] | IL-4 [5, 9] | expression of IL-1β [5, 9] | expression of IL-6 [5, 9] | expression of MCP-1 [5, 9] | expression of TNF-α [5, 9] | cell viability [6] | other results
C=C(C)[C@H]1Cc2c(ccc3c2O[C@@H]2COc4cc(OC)c(OC)cc4[C@@H]2C3=O)O1 [rotenone] | did not impact | did not impact | decrease | did not impact | did not impact |  |  |  |  |  |  |  | 
CC[C@H]1/C=C/C=C/C[C@@H](C)[C@H](O)[C@@](C)(O)C(=O)[C@@H](C)[C@H](O)[C@@H](C)C(=O)[C@@H](C)[C@H](O)[C@@H](C)/C=C/C(=O)O[C@@H]2[C@H](C)[C@H](CC1)O[C@]1(CC[C@H](C)[C@H](C[C@@H](C)O)O1)[C@H]2C [oligomycin] | did not impact |  | affected |  | did not impact |  |  |  |  |  |  |  | 
O=C(C=Cc1cccnc1)c1ccncc1 [3PO, 3-(3-pyridinyl)-1-(4-pyridinyl)-2-propen-1-one] |  |  |  |  |  | did not lower | increased | decreased | decreased | decreased | decreased | did not lower | 
NOCC(=O)O [aminooxyacetic acid] |  |  |  |  |  |  | increased | decreased | decreased | decreased | decreased |  | IL-10 levels [5, 9]: increased
O=CC[C@@H](O)[C@H](O)[C@H](O)CO [2DG, 2-deoxyglucose] |  |  |  |  |  | did not lower | increased | decreased | decreased | decreased | decreased | did not lower | 
CN(C)C(=N)N=C(N)N [metformin] | did not impact | reduced | reduced | reduced | did not impact |  |  |  |  |  |  |  | IL-1β [5, 10]: decreases; IL-4 [5, 10]: did not increase; IL-6 [5, 10]: decreases; IL-10 [5, 10]: did not increase; MCP-1 [5, 10]: decreases; TNF-α expression [5, 10]: not mitigated; mitochondrial ROS [7]: decreased; elevated mitochondrial membrane potential [8]: decreases
